Results as given in publication PMC10967832, “Cloflucarban Illuminates Specificity and Context-Dependent Activation of the PINK1–Parkin Pathway by Mitochondrial Complex Inhibition” (Biomolecules, 2024).

Target: T1, mitochondrial complex I (Bos taurus, UniProt P03887+P17694+P25708+P42026)
T1 construct: gene MT-ND1; native complex immunocaptured from solubilized bovine heart mitochondria
Test: NADH oxidation, […] nm, immunocaptured complex
Assay type: biochemical
Details: ubiquinone 1, phospholipids, room temperature

| SMILES | % activity relative to vehicle at 50 μM [%] |
| --- | --- |
| Cc1nc(-c2ccc(-c3ccc(C(=O)N4CCc5cc6c(cc54)C4(CCN(C)CC4)CO6)cc3)c(C)c2)no1 [SB-224289] | 60 |
| CO/C(=C/C(N)=O)[C@H](C)[C@H](/C=C/c1csc(-c2csc([C@@H](C)/C=C/C=C/C(C)C)n2)n1)OC [myxothiazole] | 48 |
